Test results: publication PMC12169663, “Deciphering the Tumor Uptake of Heterobivalent (SST2/Albumin) [^64Cu]Cu-NODAGA-cLAB-TATEs” (Journal of Medicinal Chemistry, 2025)
Like-named read-outs stand apart in the source and are kept apart here. Values belong to the compound of their own block, whether it stands above or below them.

Columns and labels:
[1] = parameters: method as in not given; conditions: previously characterized; ref not given; cited from earlier work
HSA [2] = molecular target: T1, HSA (Homo sapiens, UniProt P02768); experiment: Kd[HSA] from SST2 saturation binding in presence of HSA, nonlinear regression with model of Blakeley et al.
Excerpt: Blakeley et al. developed a mathematical model that includes radioligand, protein (herein HSA), and target receptor (herein SST2) to derive the K d[HSA] value of the radioligand from saturation binding experiments to the target receptor in the presence of HSA. The authors specified an explicit mathematical solution for their proposed cubic equation and provided this solution also in a practical format for GraphPad Prism, which allows the analysis of experimental data but also simulations.

[3] = Plasma stability assay, mouse plasma; assay type: in vitro ADME
Excerpt: Previously, we discovered that the ^64Cu-labeled NODAGA-cLAB-TATEs with a primary amide functionality within the albumin-binding moiety are subject to a metabolic transformation in mouse plasma. In fact, the primary amide is slowly hydrolyzed to the carboxylic acid, which turned out to be catalyzed by plasma carboxylesterases as proven by blocking this transformation in the presence of bis-para-nitrophenylphosphate. […] As this transformation entails also an increase in the binding affinity to albumin, there might be effects on the biodistribution in mice, in particular the blood circulation time. To investigate this, NODAGA-cLAB6-TATE was designed, with cLAB6 (N3Bz-D-Lys(MPB)-NH2) representing the D-configured pendant of cLAB4 (N3Bz-L-Lys(MPB)-NH2). […] However, the apparent half-lives for both compounds (≈13 and >24 h) are longer compared to the half-lives previously determined for [ ^ 64 Cu]-Cu-NODAGA-cLAB3-TATE and [ ^ 64 Cu]-Cu-NODAGA-cLAB4-TATE (≈6 and ≈3 h, respectively). For better comparability, the stability of [ ^ 64 Cu]-Cu-NODAGA-cLAB4-TATE was again examined with the same mouse plasma batch used for [ ^ 64 Cu]-Cu-NODAGA-cLAB5-TATE and [ ^ 64 Cu]-Cu-NODAGA-cLAB4- scr TATE. […] Therefore, the discrepancy with our previously reported stability data in mouse plasma might result from differences in the activity of plasma carboxylesterases in the obtained mouse plasma. However, the rate of amide hydrolysis is indeed lower for [ ^ 64 Cu]-Cu-NODAGA-cLAB4- scr TATE, independent of the mouse plasma batch, which might indicate that the actual amino acid sequence in these peptides affects the recognition by the plasma carboxylesterases.
2 Stability of the ^64Cu-labeled TATE derivatives in mouse plasma. (A) Radio-HPLC chromatograms of [^64Cu]-Cu-NODAGA-cLAB5-TATE (red), [^64Cu]-Cu-NODAGA-cLAB6-TATE (green), and [^64Cu]-Cu-NODAGA-cLAB- scr TATE (blue) after ^64Cu-labeling and incubation in mouse plasma for 24 h show the transformation of [^64Cu]-Cu-NODAGA-cLAB5-TATE and [^64Cu]-Cu-NODAGA-cLAB4- scr TATE into a metabolite of higher retention time (see the Discussion for explanation). (B) Plot of residual intact radioligands upon incubation with mouse plasma including nonlinear regression (black line) according to one-phase decay for [^64Cu]-Cu-NODAGA-cLAB5-TATE (red circles). The dotted lines represent fractions of 0.5 and 0.9. Data shown are mean values (±SD) from 1 to 3 experiments (each experiment was performed in single execution). […]
(§1) Plasma stability of the radioligands was done as previously described for NODAGA-cLAB-TATE and NODAGA-NES-TATEs. , Briefly, an aliquot of the radioligand was added to plasma and stability was assessed at different time points by withdrawing an aliquot, followed by protein precipitation and analysis by radio-HPLC.

MPC cells = experiment: Cell binding and uptake (internalization) in MPC cells; assay type: cell-based, mouse
Protocol: Furthermore, the receptor-mediated endocytosis (referred to as internalization) of the novel compounds was assessed. The values for the internalized fraction (or “acid wash” resistant fraction) were >50% (Figure S5), which might indicate a similar pharmacological behavior of these ligands upon binding to SST2 as the parent ligand TATE.
Cell binding and uptake were measured as previously described. , MPC cells were seeded into collagen-coated 24-well microplates and cultivated for 4 days. All washing steps were performed using PBS containing 0.9 mM CaCl2 and 0.5 mM MgCl2. Total radioligand uptake was measured after incubation with the radioligand (A m = 30 GBq/μmol) at a final concentration of 20 nM in RPMI 1640 medium with GlutaMAX supplement (Thermo Fisher Scientific) for 1 h at 37 and 4 °C. Nonspecific binding was determined in the presence of 20 μM Acetyl-TATE. The uptake fraction was measured after acid wash of cell surface-bound radioligand with wash buffer containing 0.05 M glycine, pH 2.8, for 5 min. The activity of cell homogenates was measured using the γ counter Wizard (PerkinElmer). The protein content of cell homogenates was measured as described above.
Figure S5: Cell binding data
Data shown in A and B are mean values (±SD) of one experiment (NODAGA-cLAB(5/6)- TATE and NODAGA-cLAB4-scrTATE) or 3 experiments (±SEM, DOTA-EB-TATE), which were performed in sextuplicate. In C, the amount of specific “internalized” (acid resistant) radioligand (red bars in A, mean values) is expressed as percentage of specific total -bound radioligand (blue bars in A, mean values). The difference to 100% was assigned to “surface - bound” radioligand. For a better overview, the compound names were abbreviated. […]
specific binding of radioligand
Incubation at 37°C for 1 h
(% dose/mg of protein) Washing with
Incubation at 4°C for 1 h […]
(1 picture or pasted object on this page, not shown here)

[4] = n-Octanol/PBS distribution coefficient (log D7.4)
Protocol: The log D7.4 values of the ^64Cu-labeled peptides were determined with the octanol partitioning method.
The determination of the log D7.4 value was done in triplicate as previously described. , Briefly, a sample of the radioligand was added to the 1:1 mixture of PBS/n-octanol. The radioactivity in a defined volume of each layer was measured (ISOMED 2100). The distribution coefficient was expressed as the logarithm of the ratio of counts per minute (cpm) measured in the n-octanol phase to the cpm measured in the PBS phase.

[5] = molecular target: human serum albumin (HSA) (Homo sapiens, UniProt P02768); experiment: Radiometric ultrafiltration assay for binding to HSA
Protocol: The ultrafiltration assay used to quantify the binding of the ^64Cu-labeled peptides to HSA was performed as previously described for NODAGA-cLAB-TATEs. , Briefly, a constant activity amount of the radioligands (10–15 MBq) were mixed with different HSA concentrations (200 nM–1.4 mM). Aliquots were loaded into the ultrafiltration devices (4104 centrifugal filter units by Millipore; 30 000 Da nominal molecular weight limit, methylcellulose micropartition membranes) and centrifuged. After centrifugation, aliquots from the top and bottom fractions were measured in a γ-counter (PerkinElmer, Wizard^2 2480 automatic gamma counter). The retained fraction was calculated as a quotient of these measurements. The dissociation constant, K d, was calculated using the Morrison equation.

[6] = Small-animal PET imaging in subcutaneous MPC tumor allograft model; conditions: female, NMRI-nu/nu (Rj:NMRI-Foxn1nu/nu), mouse, tumor, iv, total radioactivity
Protocol: (§2) The biodistribution of [ ^ 64 Cu]­Cu-NODAGA-cLAB­(5/6)-TATE, [ ^ 64 Cu]­Cu-NODAGA-cLAB4- scr TATE, and [ ^ 64 Cu]­Cu-DOTA-EB-TATE was assessed in a subcutaneous MPC tumor allograft model via small-animal PET imaging (Figure A–D). The time-activity curves (TACs) for tumor, kidneys, and heart are shown in Figure A–D (for TACs of muscle and liver, see Figure S6) and the calculated areas under curves (AUC0–48h) and tumor-to-tissue ratios are graphically summarized in Figure E,F, respectively.
(§3) (A–D) Time-activity curves (SUV, decay-corrected, as a function of time up to 48 h) obtained by PET acquisition are depicted (0–2 h in dynamic mode and time points 5, 24, and 48 h p.i.; the x-axes are segmented accordingly). Data shown are mean values (±SD) of a group of MPC tumor-bearing NMRI-nu/nu mice (n = 2, but for cLAB6-TATE n = 4). […] (E) Calculated AUC0–48h values. Data shown are mean values (±SD). (F) Tumor/organ ratios based in the AUC0–48h values.
(§4) A number of 4 × 10^6 MPC cells were resuspended in 40 μL of Dulbecco’s phosphate-buffered saline and injected subcutaneously into the shoulder of 7–10-week-old female nude mice (Rj:NMRI-Foxn1^nu/nu, Janvier Laboratories, Le Genest-Saint-Isle, France). General anesthesia was induced and maintained with inhalation of 10% (v/v) desflurane in 30% oxygen/air (v/v). Tumor growth was monitored using caliper measurements. Animals were sacrificed using CO2 inhalation and cervical dislocation. When diameters of MPC tumors reached 8 ± 3 mm (volumes of 65–282 mm^3), small-animal positron emission tomography (PET) was performed using the nanoScan PET/CT (Mediso Medical Imaging Systems, Budapest, Hungary) and Si78 PET/CT (BRUKER, Billerica, MA) instruments. Scanners were cross-calibrated using a syringe source containing 10 MBq of [^64Cu]­CuCl2 diluted in 2 mL of 0.01 M HCl. Each mouse (n = 2) received between 7 and 10 MBq of the respective radioligand (A m = 40 GBq/μmoL) delivered in 0.154 M NaCl via intravenous injection through a tail vein catheter within the initial 30 s after scan start. […] Standardized uptake values (SUV = [MBq detected activity/mL tissue]/[MBq injected activity/g body weight]) were determined in defined volumes of interest (VOIs) and reported as VOI-averaged SUVmean ± range [min–max]. Assuming a density of 1 g/mL for body tissues, the SUVs become dimensionless.

[7] = tested on: MPC tumor-bearing NMRI-nu/nu mice; experiment: as above; conditions: PET, i.v., 7–10 MBq/animal
Protocol: as §2, §3, §4

[8] = Plasma stability assay, human plasma; assay type: in vitro ADME; conditions: 37 °C, up to 24 h, single experiment, read-out: t1/2 (plasma), human
Excerpt: Previously, we discovered that the ^64Cu-labeled NODAGA-cLAB-TATEs with a primary amide functionality within the albumin-binding moiety are subject to a metabolic transformation in mouse plasma. In fact, the primary amide is slowly hydrolyzed to the carboxylic acid, which turned out to be catalyzed by plasma carboxylesterases as proven by blocking this transformation in the presence of bis-para-nitrophenylphosphate. […] As this transformation entails also an increase in the binding affinity to albumin, there might be effects on the biodistribution in mice, in particular the blood circulation time. To investigate this, NODAGA-cLAB6-TATE was designed, with cLAB6 (N3Bz-D-Lys(MPB)-NH2) representing the D-configured pendant of cLAB4 (N3Bz-L-Lys(MPB)-NH2). […] However, the apparent half-lives for both compounds (≈13 and >24 h) are longer compared to the half-lives previously determined for [ ^ 64 Cu]-Cu-NODAGA-cLAB3-TATE and [ ^ 64 Cu]-Cu-NODAGA-cLAB4-TATE (≈6 and ≈3 h, respectively). […]
as §1

HSA [9] = molecular target: T1, HSA; experiment: Schild analysis of SST2 binding in the presence of HSA
Protocol: 5 Schild analysis of SST2 binding in the presence of HAS. […] Simulation was performed in GraphPad Prism (version 10.2.3) according to the solution in PRISM language provided by Blakeley et al. for their derived cubic equation. (B, C) Exemplary saturation binding curves of [^64Cu]-Cu-NODAGA-cLAB2-TATE (B) and [^64Cu]-Cu-NODAGA-TATE (C) to intact MPC cells in the presence of increasing concentrations of HSA. For each curve, data shown are mean values (±SD) of one experiment, which was performed in triplicate. […] This plot was analyzed by linear regression. The simulation data provide a slope of unity, while for [^64Cu]-Cu-NODAGA-cLAB2-TATE, a slope of 0.69 (CI of 95%: 0.48–0.90, R ^2 = 0.990) was obtained.
Analyzing the experimental data by nonlinear regression according to the model of Blakeley et al. with fixed values for [HSA], [SST2], and K d[SST2], provided the K d[HSA] values (Table ). […]
For Schild analysis, the ratio (similar to the agonist dose ratio, DR) between the apparent K d value in the presence of each HSA concentration and the K d value in the absence of HSA was calculated. Then, the logarithm of these DR minus 1 (log(DR-1)) was calculated and plotted against the log of the concentration of HSA. This plot was analyzed by linear regression with the x-intercept equals to the log(K d) value of the radioligand for HSA.

[10] = tested on: MPC tumor-bearing NMRI-nu/nu mice; parameters: method as in not given; conditions: previous study of the authors, ref not given, cited from earlier work
[11] = 1–100 μM HSA, read-out: Kd[HSA] derived from saturation binding, range over the HSA concentrations
[12] = [HSA] 20 μM, read-out: Kd[HSA] derived from saturation binding
[13] = [HSA] 40 μM, read-out: Kd[HSA] derived from saturation binding
[14] = [HSA] 100 μM, read-out: Kd[HSA] derived from saturation binding

Chain of human serum albumin (HSA) (P02768 25-609): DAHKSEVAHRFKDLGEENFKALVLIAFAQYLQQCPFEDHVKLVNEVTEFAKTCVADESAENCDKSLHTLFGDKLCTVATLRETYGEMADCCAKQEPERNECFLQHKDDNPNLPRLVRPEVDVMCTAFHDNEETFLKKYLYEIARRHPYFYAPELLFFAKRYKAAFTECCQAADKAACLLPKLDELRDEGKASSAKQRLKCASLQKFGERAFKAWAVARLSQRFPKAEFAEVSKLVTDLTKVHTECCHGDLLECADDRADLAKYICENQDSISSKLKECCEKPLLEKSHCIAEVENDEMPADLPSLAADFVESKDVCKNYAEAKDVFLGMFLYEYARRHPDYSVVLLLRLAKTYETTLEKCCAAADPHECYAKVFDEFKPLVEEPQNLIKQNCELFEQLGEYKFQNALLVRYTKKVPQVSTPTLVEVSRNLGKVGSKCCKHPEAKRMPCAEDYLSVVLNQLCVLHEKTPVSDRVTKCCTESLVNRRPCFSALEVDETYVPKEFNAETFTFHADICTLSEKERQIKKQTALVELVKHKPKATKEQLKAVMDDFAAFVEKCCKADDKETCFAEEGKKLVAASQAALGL
T1 sequence (P02768 25-609): as above

Kd (HSA [2]; [11]): 3.9 to 108 µM
Kd (HSA [2]; [HSA] 1 μM, read-out: Kd[HSA] derived from saturation binding): 5.63 µM
Kd (HSA [2]; [HSA] 5 μM, read-out: Kd[HSA] derived from saturation binding): 4.02 µM
Kd (HSA [2]; [12]): 3.89 µM
Kd (HSA [2]; [13]): 16.7 µM
Kd (HSA [2]; [14]): 108 µM
SMILES: C[C@@H](O)[C@H](NC(=O)[C@@H]1CSSC[C@H](NC(=O)[C@@H](Cc2ccccc2)NC(=O)CC[C@H](C(=O)O)N2CCN(CC(=O)O)CCN(CC(=O)O)CC2)C(=O)N[C@@H](Cc2ccc(O)cc2)C(=O)N[C@H](Cc2c[nH]c3ccccc23)C(=O)N[C@@H](CCCCN)C(=O)N[C@@H]([C@@H](C)O)C(=O)N1)C(=O)O [[64Cu]Cu-NODAGA-TATE, metal not drawn]
log D7.4 [1]: −3.43

half-life ([3]; 37 °C, up to 24 h, single experiment, read-out: t1/2 (plasma), mouse): ~13 h
hydrolysis of the primary amide in mouse plasma ([3]; 24 h, radio-HPLC): hydrolyzed
logD [4]: -2.27
Kd [5]: 440 µM
SUV [6]: 8.9 SUV
SUV at 2 h [6]: 7.9 SUV
SUV at 4 h [6]: 4.9 SUV
SUV at 24 h [6]: 2.3 SUV
AUC0-48h heart [7]: 5.98 SUVmean*h
AUC0-48h kidney [7]: 32.36 SUVmean*h
AUC0-48h liver [7]: 22.25 SUVmean*h
AUC0-48h tumor [7]: 148 SUVmean*h
AUC0-48h tumor ([7]; listed as cLAB5): 148.10 SUVmean*h
half-life [8]: > 24 h
SMILES: C[C@@H](O)[C@H](NC(=O)[C@@H]1CSSC[C@H](NC(=O)[C@@H](Cc2ccccc2)NC(=O)COCCOCCNC(=O)[C@H](Cc2cn(-c3ccc(C(=O)N[C@@H](CCCCNC(=O)CCCc4ccc(F)cc4)C(N)=O)cc3)nn2)NC(=O)CC[C@H](C(=O)O)N2CCN(CC(=O)O)CCN(CC(=O)O)CC2)C(=O)N[C@@H](Cc2ccc(O)cc2)C(=O)N[C@H](Cc2c[nH]c3ccccc23)C(=O)N[C@@H](CCCCN)C(=O)N[C@@H]([C@@H](C)O)C(=O)N1)C(=O)O [[64Cu]Cu-NODAGA-cLAB5-TATE, metal not drawn]
specific binding of radioligand (MPC cells; incubation at 4 °C for 1 h, washing with PBS pH 7.4, 20 nM): 0.94 % dose/mg of protein
specific binding of radioligand (MPC cells; incubation at 4 °C for 1 h, washing with glycine buffer pH 2.8, 20 nM): 0.30 % dose/mg of protein
specific binding of radioligand (MPC cells; incubation at 37 °C for 1 h, washing with PBS pH 7.4 (total bound), 20 nM): 5.74 %dose/mg of protein
specific binding of radioligand (MPC cells; incubation at 37 °C for 1 h, washing with glycine buffer pH 2.8 (acid resistant), 20 nM): 3.34 %dose/mg of protein

slope of Schild plot (HSA [9]; linear regression, CI of 95%: 0.48–0.90): 0.69
Kd (HSA [9]; x-intercept of Schild plot, 5–100 μM HSA): 1.8 µM
fu ([5]; 1 μM HSA, fu=Kd/(Bmax+Kd)): 0.64
fu ([5]; 5 μM HSA): 0.26
fu ([5]; 20 μM HSA): 0.08
fu ([5]; 40 μM HSA): 0.04
fu ([5]; 100 μM HSA): 0.02
Kd (HSA [2]; [11]): 2.6 to 6.1 µM
Kd (HSA [2]; [12]): 3.06 µM
Kd (HSA [2]; [13]): 2.59 µM
Kd (HSA [2]; [14]): 6.12 µM
SMILES: C[C@@H](O)[C@H](NC(=O)[C@@H]1CSSC[C@H](NC(=O)[C@@H](Cc2ccccc2)NC(=O)COCCOCCNC(=O)[C@H](Cc2cn(-c3ccc(C(=O)N[C@@H](CCCCNC(=O)CCCc4ccc(I)cc4)C(=O)O)cc3)nn2)NC(=O)CC[C@H](C(=O)O)N2CCN(CC(=O)O)CCN(CC(=O)O)CC2)C(=O)N[C@@H](Cc2ccc(O)cc2)C(=O)N[C@H](Cc2c[nH]c3ccccc23)C(=O)N[C@@H](CCCCN)C(=O)N[C@@H]([C@@H](C)O)C(=O)N1)C(=O)O [[64Cu]Cu-NODAGA-cLAB2-TATE, metal not drawn]
tumor SUVmean ([10]; 24 h p.i.): 3.1
tumor SUVmean ([10]; 48 h p.i.): 2.4
AUC0–48h[tumor] ([10]; same MPC model): 123 SUVmean*h
